“And” between values parts separate entries of the source, which are not always exact repeats. Equal entries are not always repeated. Marks after values point to notes of the source that are not given here.
System: maize B55 haploid seedlings
Assay: nitrous oxide gas treatment at 3–8 leaf stages, B55 haploids (Example 3)
Settings: for Ear (open pollinated): No. of fertile sectors /ear / Ear (open pollinated): No. of kernels produced /ear / Ear (open pollinated): Plants with fertile sectors % / No. of tassel branch Average / Plant height (cm) Average / Tassel: No. of fertile anthers extruded/tassel / Tassel: No. of fertile sectors/tassel / Tassel: Plants with fertile sectors % / Ear (open pollinated): Plants with fertile sectors No. / Tassel: Plants with fertile sectors No. / No. of plants Survived: 600 kPa, 2 days
Source text: Leaf stages were defined as follows, At the 3 leaf stage, there are three elongated leaves and the tip of the fourth leaf appears at the center of the leaf whorl. This stage is defined as V2 according to Ritchie et al. (1997). At the 8 leaf stage, there are 8 elongated leaves and the tip of the 9th and 10th leaves appear at the center of the leaf whorl (late V5 stage). At the 6 leaf stage, six elongated leaves are observable, and the tip of seventh leaf appears at the leaf whorl (late V4 or early V5 stage). Nine to sixteen haploid plants were treated at each stage using a large air tight iron chamber (FIG. 3). […] Moistened calcium hydroxide (50 g) wrapped in a paper towel was included to absorb carbon dioxide that is produced by the seedlings, as carbon dioxide at high concentration will injure the seedlings during the treatment. The soil of the pots was dried prior to treatment to prevent root injuries. […] The gas was introduced slowly into the chamber over a 10 minutes time frame.
After the treatment, seedlings were transplanted into larger pots, and grown in a greenhouse. A relatively cool temperature (below 25° C.) was maintained to permit the appropriate development of doubled sectors. At flowering, the ears were cross pollinated by an appropriate pollen source to reveal all the fertile sectors on the ears. On the treated plants, plant height (cm), tassel size (cm), number of tassel branches, ear length (cm), the number of fertile sectors on a tassel and an ear, the number of anthers on a tassel, and the number of kernels on an ear were recorded.
Analyses of variance and Duncan's Multiple Range Tests were performed to determine the effects of treatments on the plant height (cm), tassel size (cm), and ear length (cm). Chi square tests were used to determine the effects of treatments upon the proportion of plants that developed fertile tassel and ear sectors. The ratios of untreated plants with fertile sectors were used to estimate the significance of the ratio of treated plants with fertile sectors.
Nonparametric tests were performed to compare the distributions. The primary test was the Kruskal-Wallis test. In the initial tests, the null hypothesis considered was that the distributions would be the same for each treatment and control. If the null hypothesis was rejected (P<0.05), then pair wise comparisons of each treatment to the control using Dunn's method were conducted. The tassel branch number was low incidence count data and was analyzed using the same nonparametric tests mentioned above.

## [N-]=[N+]=O [nitrous oxide gas, nitrous oxide]
3 leaf stage
  Ear (open pollinated): No. of fertile sectors /ear: 1.1 /ear
  Ear (open pollinated): No. of kernels produced /ear: 49.0* /ear
  Ear (open pollinated): Plants with fertile sectors %: 67%
  No. of tassel branch Average: 18.8*
  Plant height (cm) Average: 183 cm·days
  Tassel: No. of fertile anthers extruded/tassel: 35.6 /tassel
  Tassel: No. of fertile sectors/tassel: 1.1 /tassel
  Tassel: Plants with fertile sectors %: 67%
3 leaf stage, 9 examined
  Ear (open pollinated): Plants with fertile sectors No.: 6
  Tassel: Plants with fertile sectors No.: 6
3 leaf stage, 10 treated
  No. of plants Survived: 9
3–8 leaf stage treatments
  number of anthers /tassel, span over treatments: 35.6–521 /tassel
  number of kernels on the ears, span over treatments: 10.9–49.0
4 leaf stage
  Ear (open pollinated): No. of fertile sectors /ear: 2.8** /ear
  Ear (open pollinated): No. of kernels produced /ear: 21.5** /ear
  Ear (open pollinated): Plants with fertile sectors %: 100** %
  No. of tassel branch Average: 20.1
  Plant height (cm) Average: 168 bc cm
  Tassel: No. of fertile anthers extruded/tassel: 111.5* /tassel
  Tassel: No. of fertile sectors/tassel: 1.5 /tassel
  Tassel: Plants with fertile sectors %: 64%
4 leaf stage, 11 examined
  Ear (open pollinated): Plants with fertile sectors No.: 11
  Tassel: Plants with fertile sectors No.: 7
4 leaf stage, 11 treated
  No. of plants Survived: 11
5 leaf stage
  Ear (open pollinated): No. of fertile sectors /ear: 1.6 /ear
  Ear (open pollinated): No. of kernels produced /ear: 40.4** /ear
  Ear (open pollinated): Plants with fertile sectors %: 89* %
  No. of tassel branch Average: 13.9**
  Plant height (cm) Average: 170 c cm
  Tassel: No. of fertile anthers extruded/tassel: 139.6** /tassel
  Tassel: No. of fertile sectors/tassel: 3.0* /tassel
  Tassel: Plants with fertile sectors %: 100** %
5 leaf stage, 9 examined
  Ear (open pollinated): Plants with fertile sectors No.: 8
  Tassel: Plants with fertile sectors No.: 9
5 leaf stage, 9 treated
  No. of plants Survived: 9
5–7 leaf stages
  frequency of fertile sectors on the tassels: 100%
  number of anthers on the tassels: 140–521 /tassel
  number of kernels on the ears: 40.4–47.5 /ear
6 leaf stage
  Ear (open pollinated): No. of fertile sectors /ear: 1.7 /ear
  Ear (open pollinated): No. of kernels produced /ear: 45.5** /ear
  Ear (open pollinated): Plants with fertile sectors %: 90* %
  No. of tassel branch Average: 14.5**
  Plant height (cm) Average: 165 bc cm
  Tassel: No. of fertile anthers extruded/tassel: 521 /tassel and 521.1** /tassel
  Tassel: No. of fertile sectors/tassel: 5.7** /tassel
  Tassel: Plants with fertile sectors %: 100** %
6 leaf stage, 10 examined
  Ear (open pollinated): Plants with fertile sectors No.: 9
  Tassel: Plants with fertile sectors No.: 10
6 leaf stage, 10 treated
  No. of plants Survived: 10
7 leaf stage
  Ear (open pollinated): No. of fertile sectors /ear: 1.8 /ear
  Ear (open pollinated): No. of kernels produced /ear: 47.5** /ear
  Ear (open pollinated): Plants with fertile sectors %: 82%
  No. of tassel branch Average: 14.3**
  Plant height (cm) Average: 168 bc cm
  Tassel: No. of fertile anthers extruded/tassel: 267.3** /tassel
  Tassel: No. of fertile sectors/tassel: 9.6** /tassel
  Tassel: Plants with fertile sectors %: 100** %
7 leaf stage, 11 examined
  Ear (open pollinated): Plants with fertile sectors No.: 9
  Tassel: Plants with fertile sectors No.: 11
7 leaf stage, 11 treated
  No. of plants Survived: 11
8 leaf stage
  Ear (open pollinated): No. of fertile sectors /ear: 2.3** /ear
  Ear (open pollinated): No. of kernels produced /ear: 10.9* /ear
  Ear (open pollinated): Plants with fertile sectors %: 92** %
  No. of tassel branch Average: 20.4*
  Plant height (cm) Average: 137 a cm
  Tassel: No. of fertile anthers extruded/tassel: 283.2** /tassel
  Tassel: No. of fertile sectors/tassel: >18.6** /tassel
  Tassel: Plants with fertile sectors %: 100** %
8 leaf stage, 12 examined
  Ear (open pollinated): Plants with fertile sectors No.: 11
  Tassel: Plants with fertile sectors No.: 12
8 leaf stage, 12 treated
  No. of plants Survived: 12

Source: patent US7135615B2, “Chromosome doubling method” (The Curators of the University of Missouri, priority 2001, dated 2006)
